Measured values: patent publication US20260284208A1, “SYSTEM” (Oxford University Innovation Limited, priority 2023, published 2026)

Tested on: library of 8,380 IKZF3 degrons (ZF-eGFP/mCherry reporter) in Jurkat cells
Assay: Pooled library screen (FACS, NGS, limma voom LogFC of positive vs negative read counts)
Type: cell-based, human
Method in brief: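 Degron enrichment was scored by amplicon NGS of gDNA from GFP-low versus other mCherry+ cells, at >600× coverage across three independent transductions. Sorting followed 18 h exposure at 37 °C to thalidomide analog or DMSO, which set the gate; dead cells were excluded with DAPI. Single-copy integration used MOI <0.3.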

## CN1CCN(c2ccc3c(c2)C(=O)N(C2CCC(=O)NC2=O)C3=O)CC1 (stereo not drawn) [B08, 2-(2,6-dioxopiperidin-3-yl)-5-(4-methylpiperazin-1-yl)isoindoline-1,3-dione]
Degron-ID 3435, SEQ ID NO 2286, 46F_47S_49E_50I_52G_53A_54S_55F_67L
  B08_logFC: 2.841
Degron-ID 3476, SEQ ID NO 2339, 46F_47S_49E_50V_52G_53A_54T_55F_67L
  B08_logFC: 2.705
Degron-ID 3600, SEQ ID NO 2322, 46F_47T_49D_50I_52G_53A_54A_55F_67L
  B08_logFC: 2.751
Degron-ID 3732, SEQ ID NO 2280, 46F_47T_49N_50I_52G_53A_54P_55F_67L
  B08_logFC: 2.855
Degron-ID 3820, SEQ ID NO 2304, 46F_47T_49P_50V_52G_53A_54A_55F_67L
  B08_logFC: 2.797
Degron-ID 3832, SEQ ID NO 2318, 46F_47T_49P_50V_52G_53A_54P_55F_67L
  B08_logFC: 2.762
Degron-ID 3892, SEQ ID NO 2316, 46F_47V_49D_50V_52G_53A_54P_55F_67L
  B08_logFC: 2.764
Degron-ID 3900, SEQ ID NO 2351, 46F_47V_49E_50I_52G_53A_54A_55F_67L
  B08_logFC: 2.675
Degron-ID 3905, SEQ ID NO 2298, 46F_47V_49E_50I_52G_53A_54G_55F_67L
  B08_logFC: 2.805
Degron-ID 3955, SEQ ID NO 2295, 46F_47V_49E_50V_52G_53A_54S_55F_67L
  B08_logFC: 2.815
Degron-ID 4129, SEQ ID NO 2331, 46F_47W_49D_50V_52G_53A_54L_55F_67L
  B08_logFC: 2.733
Degron-ID 4132, SEQ ID NO 2320, 46F_47W_49D_50V_52G_53A_54P_55F_67L
  B08_logFC: 2.758
Degron-ID 4158, SEQ ID NO 2311, 46F_47W_49E_50I_52G_53A_54W_55F_67L
  B08_logFC: 2.771
Degron-ID 4168, SEQ ID NO 2309, 46F_47W_49E_50Q_52G_53A_54K_55F_67L
  B08_logFC: 2.774
Degron-ID 4182, SEQ ID NO 2288, 46F_47W_49E_50V_52G_53A_54D_55F_67L
  B08_logFC: 2.825
Degron-ID 4259, SEQ ID NO 2276, 46F_47W_49N_50V_52G_53A_54Y_55F_67L
  B08_logFC: 2.879
Degron-ID 4262, SEQ ID NO 2312, 46F_47W_49P_50I_52G_53A_54D_55F_67L
  B08_logFC: 2.769
Degron-ID 4269, SEQ ID NO 2299, 46F_47W_49P_50I_52G_53A_54L_55F_67L
  B08_logFC: 2.805
Degron-ID 4294, SEQ ID NO 2296, 46F_47W_49P_50Q_52G_53A_54R_55F_67L
  B08_logFC: 2.812
Degron-ID 4325, SEQ ID NO 2330, 46F_47Y_49D_50I_52G_53A_54G_55F_67L
  B08_logFC: 2.741
Degron-ID 4368, SEQ ID NO 2270, 46F_47Y_49D_50V_52G_53A_54K_55F_67L
  B08_logFC: 2.897
Degron-ID 4374, SEQ ID NO 2335, 46F_47Y_49D_50V_52G_53A_54R_55F_67L
  B08_logFC: 2.715
Degron-ID 4377, SEQ ID NO 2302, 46F_47Y_49D_50V_52G_53A_54V_55F_67L
  B08_logFC: 2.8
Degron-ID 4384, SEQ ID NO 2279, 46F_47Y_49E_50I_52G_53A_54F_55F_67L
  B08_logFC: 2.859
Degron-ID 4400, SEQ ID NO 2269, 46F_47Y_49E_50Q_52G_53A_54A_55F_67L
  B08_logFC: 2.899
Degron-ID 4413, SEQ ID NO 2317, 46F_47Y_49E_50Q_52G_53A_54Q_55F_67L
  B08_logFC: 2.763
Degron-ID 4415, SEQ ID NO 2272, 46F_47Y_49E_50Q_52G_53A_54S_55F_67L
  B08_logFC: 2.888
Degron-ID 4445, SEQ ID NO 2347, 46F_47Y_49N_50I_52G_53A_54G_55F_67L
  B08_logFC: 2.678
Degron-ID 4493, SEQ ID NO 2313, 46F_47Y_49N_50V_52G_53A_54Q_55F_67L
  B08_logFC: 2.769
Degron-ID 4495, SEQ ID NO 2266, 46F_47Y_49N_50V_52G_53A_54S_55F_67L
  B08_logFC: 2.902
Degron-ID 4508, SEQ ID NO 2306, 46F_47Y_49P_50I_52G_53A_54K_55F_67L
  B08_logFC: 2.789
Degron-ID 4509, SEQ ID NO 2274, 46F_47Y_49P_50I_52G_53A_54L_55F_67L
  B08_logFC: 2.886
Degron-ID 4536, SEQ ID NO 2353, 46F_47Y_49P_50Q_52G_53A_54T_55F_67L
  B08_logFC: 2.667
Degron-ID 4543, SEQ ID NO 2292, 46F_47Y_49P_50V_52G_53A_54E_55F_67L
  B08_logFC: 2.819
Degron-ID 4550, SEQ ID NO 2352, 46F_47Y_49P_50V_52G_53A_54M_55F_67L
  B08_logFC: 2.668
Degron-ID 6545, SEQ ID NO 2345, 46L_47F_49P_50I_52G_53F_54G_55C_67L
  B08_logFC: 2.683
Degron-ID 6550, SEQ ID NO 2301, 46L_47F_49P_50I_52G_53F_54M_55C_67L
  B08_logFC: 2.8
Degron-ID 6559, SEQ ID NO 2357, 46L_47F_49P_50I_52G_53F_54Y_55C_67L
  B08_logFC: 2.661
Degron-ID 6755, SEQ ID NO 2278, 46L_47S_49P_50I_52G_53F_54S_55C_67L
  B08_logFC: 2.86
Degron-ID 6775, SEQ ID NO 2332, 46L_47T_49P_50I_52G_53F_54S_55C_67L
  B08_logFC: 2.73
Degron-ID 6795, SEQ ID NO 2300, 46L_47V_49P_50I_52G_53F_54S_55C_67L
  B08_logFC: 2.801
Degron-ID 6824, SEQ ID NO 2285, 46L_47Y_49P_50I_52G_53F_54F_55C_67L
  B08_logFC: 2.841
Degron-ID 6834, SEQ ID NO 2344, 46L_47Y_49P_50I_52G_53F_54R_55C_67L
  B08_logFC: 2.685
Degron-ID 7574, SEQ ID NO 2310, 46F_47W_49E_50I_52G_53R_54R_55F_67L
  B08_logFC: 2.772
Degron-ID 7616, SEQ ID NO 2308, 46L_47A_49E_50I_52G_53F_54T_55C_67L
  B08_logFC: 2.779
Degron-ID 7636, SEQ ID NO 2363, 46L_47C_49E_50I_52G_53F_54T_55C_67L
  B08_logFC: 2.644
Degron-ID 7736, SEQ ID NO 2325, 46L_47H_49E_50I_52G_53F_54T_55C_67L
  B08_logFC: 2.749
Degron-ID 7915, SEQ ID NO 2362, 46L_47T_49E_50I_52G_53F_54S_55C_67L
  B08_logFC: 2.649
Degron-ID 7964, SEQ ID NO 2360, 46L_47Y_49E_50I_52G_53F_54F_55C_67L
  B08_logFC: 2.653
Degron-ID 7971, SEQ ID NO 2297, 46L_47Y_49E_50I_52G_53F_54N_55C_67L
  B08_logFC: 2.807
WT ZF sequence
  position of the WT sequence in the volcano plot of the library screen: far away from the ‘hits’ region
